Experimental data as given in patent US11319315B2, “Cyclohexyl acid triazole azoles as LPA antagonists” (BRISTOL-MYERS SQUIBB COMPANY, priority 2017, dated 2022).
Structures can show the parent of a compound that is named as a salt. Where two headings read alike, the source gives them in different places.

Target: T1, human LPA1 (Homo sapiens, UniProt Q92633)
T1 construct: expressed in transfected cells; host or cells: Chinese hamster ovary (CHO) cells
Experiment: LPA1 functional antagonist assay (LPA-induced calcium flux in CHO cells overexpressing human LPA1)
Format: cell-based
Conditions: read-out: hLPA1 IC50
Summary of the method: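 CHO cells overexpressing human LPA1, dye-loaded 30 min at 37 °C, then given compound (0.08 nM–5 μM final, 0.5% DMSO) in HBSS/20 mM HEPES/0.1% fatty-acid-free BSA for 20 min at room temperature before 10 nM LPA. IC50 as 50% inhibition of LPA-evoked calcium flux, 4-parameter logistic fit.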

[1] = inhibition of calcium flux induced by 10 nM LPA, CHO cells overexpressing human LPA1

T1 sequence (Q92633 whole entry): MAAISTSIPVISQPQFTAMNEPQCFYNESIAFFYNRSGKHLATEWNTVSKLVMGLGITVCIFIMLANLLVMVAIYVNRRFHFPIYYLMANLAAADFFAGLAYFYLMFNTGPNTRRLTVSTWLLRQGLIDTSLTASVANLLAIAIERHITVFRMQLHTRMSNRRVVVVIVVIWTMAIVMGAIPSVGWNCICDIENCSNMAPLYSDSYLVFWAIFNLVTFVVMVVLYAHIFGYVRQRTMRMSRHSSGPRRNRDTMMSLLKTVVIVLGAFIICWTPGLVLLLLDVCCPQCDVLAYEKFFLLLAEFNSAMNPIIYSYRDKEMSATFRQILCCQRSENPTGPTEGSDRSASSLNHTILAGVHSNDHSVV

| SMILES | IC50 [1] [nM] | IC50 [nM] |
| --- | --- | --- |
| CCc1nsc(NCc2c(-c3ccc(O[C@H]4CCC[C@H](C(=O)O)C4)c(C)n3)nnn2C)n1 [Example 118] | 919 | – |
| CCCc1nc(NCc2c(-c3ccc(O[C@H]4CCC[C@H](C(=O)O)C4)c(C)n3)nnn2C)no1 [Example 68] | 42 | – |
| Cc1nc(-c2nnn(C)c2Cc2nnc(Cc3ccccc3)o2)ccc1O[C@H]1CCC[C@H](C(=O)O)C1 [Example 73, (1 S,3 S)-3-((6-(5-((5-benzyl-1,3,4-oxadiazol-2-yl)methyl)-1-methyl-1H-1,2,3-triazol-4-yl)-2-methylpyridin-3-yl)oxy)cyclohexane-1-carboxylic acid] | 55 | – |
| CCOc1nc(NCc2c(-c3ccc(O[C@H]4CCC[C@H](C(=O)O)C4)c(C)n3)nnn2C)ns1 [Example 5] | 28 | – |
| Cc1nc(-c2nnn(C)c2Cc2nc(Cc3ccccc3)no2)ccc1O[C@H]1CCC[C@H](C(=O)O)C1 [Example 244, (1S,3S)-3-((6-(5-((3-benzyl-1,2,4-oxadiazol-5-yl)methyl)-1-methyl-1H-1,2,3-triazol-4-yl)-2-methylpyridin-3-yl)oxy)cyclohexane-1-carboxylic acid] | 40 | – |
| Cc1nc(-c2nnn(C)c2Cc2nc(COC(C)C)no2)ccc1O[C@H]1CCC[C@H](C(=O)O)C1 [Example 248, (1S,3S)-3-((6-(5-((3-(isopropoxy-methyl)-1,2,4-oxadiazol-5-yl)methyl)-1-methyl-1H-1,2,3-triazol-4-yl)-2-methylpyridin-3-yl)oxy)cyclohexane-1-carboxylic acid] | 61 | – |
| CC[C@@H](OC)c1nc(NCc2c(-c3ccc(O[C@H]4CCC[C@H](C(=O)O)C4)c(C)n3)nnn2C)no1 (single isomer, unassigned) [Example 216] | 121 | – |
| CCCc1nnc(NCc2c(-c3ccc(O[C@H]4CCC[C@H](C(=O)O)C4)c(C)n3)nnn2C)s1 [Example 2, (1 S,3S)-3-((2-Methyl-6-(1-methyl-5-(((5-propyl-1,3,4-thiadiazol-2-yl)amino)methyl)-1H-1,2,3-triazol-4-yl)pyridin-3-yl)oxy)cyclohexanecarboxylic acid] | 185 | – |
| Cc1nc(-c2nnn(C)c2CNc2nc(C)n(-c3ccccc3)n2)ccc1O[C@H]1CCC[C@H](C(=O)O)C1 [Example 37] | 46 | – |
| Cc1nc(-c2nnn(C)c2CNc2noc(CCC(C)(F)F)n2)ccc1O[C@H]1CCC[C@H](C(=O)O)C1 [Example 188] | 42 | – |
| CCc1nc(-c2nnn(C)c2CNc2nc(C(C)(C)C)ns2)ccc1O[C@H]1CCC[C@H](C(=O)O)C1 [Example 394, (1S,3S)-3-((6-(5-(((3-(tert-butyl)-1,2,4-thiadiazol-5-yl)amino)methyl)-1-methyl-1H-1,2,3-triazol-4-yl)-2-ethylpyridin-3-yl)oxy)cyclohexane-1-carboxylic acid] | – | 66 |
| Cc1nc(-c2nnn(C)c2CNc2nnnn2Cc2ccccc2)ccc1O[C@H]1CCC[C@H](C(=O)O)C1 [Example 390, (1S,3S)-3-((6-(5-(((1-benzyl-1H-tetrazol-5-yl)amino)methyl)-1-methyl-1H-1,2,3-triazol-4-yl)-2-methylpyridin-3-yl)oxy)cyclo-hexane-1-carboxylic acid] | – | 375 |
| COc1ccc(-n2nnc(NCc3c(-c4ccc(O[C@H]5CCC[C@H](C(=O)O)C5)c(C)n4)nnn3C)n2)cc1 [Example 383, (1S,3S)-3-((6-(5-(((2-(4-methoxy-phenyl)-2H-tetrazol-5-yl)amino)methyl)-1-methyl-1H-1,2,3-triazol-4-yl)-2-methylpyridin-3-yl)oxy)cyclohexane-1-carboxylic acid] | – | 513 |
| Cc1nc(-c2nnn(C)c2CNc2ncn(-c3cc(F)cc(F)c3)n2)ccc1O[C@H]1CCC[C@H](C(=O)O)C1 [Example 211, (1 S,3 S)-3-((6-(5-(((1-(3,5-difluorophenyl)-1H-1,2,4-triazol-3-yl)amino)methyl)-1-methyl-1H-1,2,3-triazol-4-yl)-2-methylpyridin-3-yl)oxy)cyclohexane-1-carboxylic acid] | 45 | – |
| Cc1nc(-c2nnn(C)c2CNc2nc(-c3ccccc3)c(C)s2)ccc1O[C@H]1CCC[C@H](C(=O)O)C1 [Example 18] | 15 | – |
| Cc1nc(-c2nnn(C)c2CNc2noc(COC3CCC3)n2)ccc1O[C@H]1CCC[C@H](C(=O)O)C1 [Example 283, (1S,3S)-3-((6-(5-(((5-(cyclobutoxymethyl)-1,2,4-oxadiazol-3-yl)amino)methyl)-1-methyl-1H-1,2,3-triazol-4-yl)-2-methylpyridin-3-yl)oxy)cyclo-hexane-1-carboxylic acid, TFA salt] | 19 | – |
| Cc1nc(-c2nnn(C)c2CNc2noc(CC(C)C)n2)ccc1O[C@H]1CCC[C@H](C(=O)O)C1 [Example 71] | 33 | – |
| Cc1nc(-c2nnn(C)c2CNc2nc(C(C)(C)C)no2)ccc1O[C@H]1CCC[C@H](C(=O)O)C1 [Example 60] | 478 | – |
| Cc1nc(-c2nnn(C)c2CNc2nc(-c3ccccc3)no2)ccc1O[C@H]1CCC[C@H](C(=O)O)C1 [Example 61] | 26 | – |
| Cc1nc(-c2nnn(C)c2CNc2nnn(Cc3ccccc3)n2)ccc1O[C@H]1CCC[C@H](C(=O)O)C1 [Example 391, (1S,3S)-3-((6-(5-(((2-benzyl-2H-tetrazol-5-yl)amino)methyl)-1-methyl-1H-1,2,3-triazol-4-yl)-2-methylpyridin-3-yl)oxy)cyclo-hexane-1-carboxylic acid] | – | 23 |
| Cc1nc(-c2nnn(C)c2CNc2noc(CC3CC3(F)F)n2)ccc1O[C@H]1CCC[C@H](C(=O)O)C1 (stereo partly drawn) [Example 196] | 28 | – |

Results, then the compound that gave them:

| IC50 [1] [nM] | IC50 [nM] | SMILES |
| --- | --- | --- |
| 29 | – | Cc1nc(-c2nnn(C)c2CNc2nc(CC3CCC3)no2)ccc1O[C@H]1CCC[C@H](C(=O)O)C1 [Example 156] |
| 79 | – | Cc1nc(-c2nnn(C)c2CNc2noc(C3CCC(F)(F)C3)n2)ccc1O[C@H]1CCC[C@H](C(=O)O)C1 (stereo partly drawn) [Example 186] |
| 14 | – | Cc1nc(-c2nnn(C)c2Cn2nnc(Cc3ccccc3)n2)ccc1O[C@H]1CCC[C@H](C(=O)O)C1 [Example 109] |
| 167 | – | Cc1nc(-c2nnn(C)c2Cn2nnnc2Cc2ccc(Cl)cc2)ccc1O[C@H]1CCC[C@H](C(=O)O)C1 [Example 325, (1S,3S)-3-((6-(5-((5-(4-chloro-benzyl)-1H-tetrazol-1-yl)methyl)-1-methyl-1H-1,2,3-triazol-4-yl)-2-methylpyridin-3-yl)oxy)cyclo-hexane-1-carboxylic acid] |
| 42.1 | – | Cc1nc(-c2nnn(C)c2CNc2noc(C3CC3C)n2)ccc1O[C@H]1CCC[C@H](C(=O)O)C1 (stereo partly drawn) [Example 180] |
| 33 | – | Cc1nc(-c2nnn(C)c2CNc2noc(C3CC(C)C3)n2)ccc1O[C@H]1CCC[C@H](C(=O)O)C1 (stereo partly drawn) [Example 199] |
| 59 | – | CCCc1nc(Cc2c(-c3ccc(O[C@H]4CCC[C@H](C(=O)O)C4)c(C)n3)nnn2C)no1 [Example 235, (1S,3S)-3-((2-methyl-6-(1-methyl-5-((5-propyl-1,2,4-oxadiazol-3-yl)methyl)-1H-1,2,3-triazol-4-yl)pyridin-3-yl)oxy)cyclohexane-1-carboxylic acid] |
| 673 | – | Cc1nc(-c2nnn(C)c2Cn2nnnc2C2CC2)ccc1O[C@H]1CCC[C@H](C(=O)O)C1 [Example 319, (1S,3S)-3-((6-(5-((5-cyclopropyl-1H-tetrazol-1-yl)methyl)-1-methyl-1H-1,2,3-triazol-4-yl)-2-methylpyridin-3-yl)oxy)cyclo-hexane-1-carboxylic acid] |
| 67 | – | Cc1nc(-c2nnn(C)c2Cn2nnc(OC3CCCC3)n2)ccc1O[C@H]1CCC[C@H](C(=O)O)C1 [Example 336, (1S,3S)-3-{[6-(5-{[5-(cyclopentyl-oxy)-2H-1,2,3,4-tetrazol-2-yl]methyl}-1-methyl-1H-1,2,3-triazol-4-yl)-2-methylpyridin-3-yl]oxy}cyclohexane-1-carboxylic acid] |
| 112 | – | Cc1nc(-c2nnn(C)c2CNc2noc([C@H]3C[C@@](C)(F)C3)n2)ccc1O[C@H]1CCC[C@H](C(=O)O)C1 [Example 191] |
| 90 | – | Cc1nc(-c2nnn(C)c2Cn2ncc(C3CC3)n2)ccc1O[C@H]1CCC[C@H](C(=O)O)C1 [Example 266, (1S,3S)-3-((6-(5-((4-cyclopropyl-2H-1,2,3-triazol-2-yl)methyl)-1-methyl-1H-1,2,3-triazol-4-yl)-2-methyl-pyridin-3-yl)oxy)cyclohexane-1-carboxylic acid] |
| 266 | – | Cc1nc(-c2nnn(C)c2CNc2noc(C3CC3)n2)ccc1O[C@H]1CCC[C@H](C(=O)O)C1 [Example 173] |
| 18.1 | – | Cc1nc(-c2nnn(C)c2CNc2noc(C3CC34CC4)n2)ccc1O[C@H]1CCC[C@H](C(=O)O)C1 (stereo partly drawn) [Example 204] |
| – | 949 | Cc1nc(-c2nnn(C)c2Cn2nnc(N(CC3CC3)CC3CC3)n2)ccc1O[C@H]1CCC[C@H](C(=O)O)C1 [Example 358, (1S,3S)-3-((6-(5-((5-(bis(cyclo-propylmethyl)amino)-2H-tetrazol-2-yl)methyl)-1-methyl-1H-1,2,3-triazol-4-yl)-2-methylpyridin-3-yl)oxy)cyclohexane-1-carboxylic acid] |
| 58 | – | Cc1nc(-c2nnn(C)c2Cn2nnc(-c3cccc(F)c3)n2)ccc1O[C@H]1CCC[C@H](C(=O)O)C1 [Example 320, (1S,3S)-3-((6-(5-((5-(3-fluoro-phenyl)-2H-tetrazol-2-yl)methyl)-1-methyl-1H-1,2,3-triazol-4-yl)-2-methylpyridin-3-yl)oxy)cyclo-hexane-1-carboxylic acid] |
| 309 | – | CCCn1cnc(NCc2c(-c3ccc(O[C@H]4CCC[C@H](C(=O)O)C4)c(C)n3)nnn2C)n1 [Example 35] |
| 26 | – | Cc1nc(-c2nnn(C)c2COc2noc(C(C)C)n2)ccc1O[C@H]1CCC[C@H](C(=O)O)C1 [Example 130] |
| 52 | – | Cc1nc(-c2nnn(C)c2CNc2noc([C@H]3C[C@](C)(F)C3)n2)ccc1O[C@H]1CCC[C@H](C(=O)O)C1 [Example 192] |
